{
  "source": "patent US20100240760A1",
  "about": "(priority 2005, published 2010)",
  "key": {"[1]": {"tested_on": "patients with mild-to-moderate essential hypertension", "assay": "Clinical trial A2201 (Example I): aliskiren vs placebo and irbesartan, 8 weeks", "type": "in vivo, human", "conditions": "for MSDBP responders / MSSBP responders: ITT population at Endpoint, aliskiren 150-600 mg groups, irbesartan 150 mg; for MSDBP responders: responder: MSDBP <90 mm Hg or ≧10 mm Hg reduction from baseline; for MSSBP responders: responder: MSSBP <140 mm Hg or ≧20 mm Hg reduction from baseline; for mean increase in active renin: ITT population", "description": "The clinical trial. A multicenter, randomized, double-blind, parallel group clinical trial was designed to explore the efficacy and safety of aliskiren compared to placebo in a population of mild-to-moderate hypertensive patients. The treatment was for eight weeks, i.e., the clinical trial endpoint was at eight weeks for this particular trial. […] The majority of patients were Caucasian and younger than 65 years of age, with a mean age in the mid 50s. The overall distribution of males and females was even. The primary efficacy variable analysed was MSDBP change (reduction in MSDBP from baseline). The secondary efficacy variables analysed were MSSBP change (reduction in MSSBP from baseline), responder ratio, plasma renin activity (PRA) reduction and active plasma renin (AREN) increase from baseline."}, "[2]": {"tested_on": "patients with mild-to-moderate essential hypertension", "assay": "Pharmacogenetic analysis of A2201 (Example I): response by ACE and AGTR2 genotype", "type": "in vivo, human", "conditions": "aliskiren treated groups pooled"}, "[3]": {"tested_on": "patients with mild-to-moderate essential hypertension", "assay": "Re-analysis of A2201 by genotype (Example II model, LSMEAN, race as covariate)", "type": "in vivo, human", "conditions": "all aliskiren treated groups in A2201", "description": "Samples. Patients participating in the clinical trial A2201 (see, EXAMPLE I) and clinical trial A2203 were asked to provide a separate consent for participation in pharmacogenetic analysis. Blood samples from all consenting patients were collected at the individual trial sites and then shipped to Covance (Indianapolis, Ind.). The genomic DNA of each patient was extracted from the blood by Covance using the […]™ DNA Isolation Kit (D-50K) (Gentra, Minneapolis, Minn.) and shipped to NIBR for genotyping. Ultimately, 511 patients from the clinical trial in EXAMPLE I (A2201) were genotyped, with roughly equal ratios of each treatment arm.\nThe primary efficacy variable was MSDBP change (reduction in MSDBP from baseline at end point). The secondary efficacy variables are MSSBP change (reduction in MSSBP from baseline at end point), responder ratio, plasma renin activity (PRA) reduction and active plasma renin (AREN) increase from baseline.\nGenotyping. SNP assays were designed using information from the public dbSNP database and the proprietary Celera/ABI database. The resulting probe sets for the genotyping assay were generated for ABI's Assays-by-Design® platform. Livak K J et al., Nat. Genet. 9: 341-2 (1995). Genotyping was performed on 10 ng of genomic DNA according to the manufacturer's instructions.\nStatistical analysis. Genotype-phenotype association studies and related analyses were performed in SAS (Cary, N.C.) using Analyst.\nAssociation tests used categorical genotypes as the independent variable, with no assumption about dominance, and the various efficacy variables as dependent variables. Tests of continuous dependent variables used an ANCOVA analysis, and logistic regression was used for categorical dependent variables. Note that none of the results have been adjusted for multiple hypothesis testing. […] Covariates in the genotype-phenotype association analysis were: (1) dose level of treatment; (2) trial region coded as STU1A in A2201 (see EXAMPLE I) or REGION in A2203; (3) baseline measurement of MSDBP and MSSBP; and (4) race. Analysis was performed in all the samples from the three aliskiren treated arms first."}, "hypertensive patients": {"tested_on": "hypertensive patients", "assay": "Clinical trial A2203 (Example II): aliskiren, valsartan and combinations, 6 weeks", "type": "in vivo, human"}, "[4]": {"tested_on": "sodium-depleted marmosets", "conditions": "p.o. or i.v.; cited from earlier work"}, "[5]": {"conditions": "humans; cited from earlier work"}, "[6]": {"tested_on": "patients with mild-to-moderate essential hypertension", "assay": "Clinical trial A2201 (Example I): aliskiren vs placebo and irbesartan, 8 weeks", "type": "in vivo, human", "conditions": "75, 150, or 300 mg once daily; mild-to-moderate hypertensive patients"}, "[7]": {"conditions": "SNP_4769 genotype CT (n 14), listed as Aliskiren"}, "[8]": {"conditions": "SNP_4769 genotype TT (n 278), listed as Aliskiren"}},
  "data": [
    {"molecule": "COCCCOc1cc(C[C@@H](C[C@H](N)[C@@H](O)C[C@H](C(=O)NCC(C)(C)C(N)=O)C(C)C)C(C)C)ccc1OC", "note": "[aliskiren, Aliskiren]", "values": [
      {"measurement": "MSDBP responders", "setting": "[1]", "result": "59-67%"},
      {"measurement": "MSSBP responders", "setting": "[1]", "result": "57-68%"},
      {"measurement": "mean increase in active renin", "setting": "[1]; 150 mg", "result": 20.8, "unit": "mu/mL"},
      {"measurement": "mean increase in active renin", "setting": "[1]; 300 mg", "result": 29.9, "unit": "mu/mL"},
      {"measurement": "mean increase in active renin", "setting": "[1]; 600 mg", "result": 93.6, "unit": "mu/mL"},
      {"measurement": "MSDBP reduction, comparison across treatment groups", "setting": "[1]; aliskiren 300 and 600 mg", "result": "greatest reductions"},
      {"measurement": "MSSBP reduction, comparison across treatment groups", "setting": "[1]; aliskiren 300 and 600 mg", "result": "greatest reductions"},
      {"measurement": "MSSBP reduction, comparison with placebo and irbesartan", "setting": "[1]; aliskiren 300 and 600 mg, at Endpoint", "result": "statistically superior to placebo and irbesartan"},
      {"measurement": "MSDBP reduction", "setting": "[2]; SNP_1445 genotype AA (n 106)", "result": "−11.2", "unit": "mmHg"},
      {"measurement": "MSSBP reduction", "setting": "[2]; SNP_1445 genotype AA (n 106)", "result": "−13.9", "unit": "mm Hg"},
      {"measurement": "MSDBP reduction", "setting": "[2]; SNP_1445 genotype AG (n 69)", "result": "−13.2", "unit": "mmHg"},
      {"measurement": "MSSBP reduction", "setting": "[2]; SNP_1445 genotype AG (n 69)", "result": "−15.7", "unit": "mm Hg"},
      {"measurement": "MSDBP reduction", "setting": "[2]; SNP_1445 genotype GG (n 118)", "result": "−9.3", "unit": "mmHg"},
      {"measurement": "MSSBP reduction", "setting": "[2]; SNP_1445 genotype GG (n 118)", "result": "−11.8", "unit": "mm Hg"},
      {"measurement": "MSDBP reduction", "setting": "[2]; SNP_4769 genotype CT (n 14)", "result": 4.7, "unit": "mmHg"},
      {"measurement": "MSSBP reduction", "setting": "[2]; SNP_4769 genotype CT (n 14)", "result": 6.2, "unit": "mm Hg"},
      {"measurement": "MSDBP reduction", "setting": "[2]; [7]", "result": "−4.7", "unit": "mmHg"},
      {"measurement": "MSSBP reduction", "setting": "[2]; [7]", "result": "−6.2", "unit": "mm Hg"},
      {"measurement": "MSDBP reduction", "setting": "[2]; SNP_4769 genotype TT (n 278)", "result": 11.1, "unit": "mmHg"},
      {"measurement": "MSSBP reduction", "setting": "[2]; SNP_4769 genotype TT (n 278)", "result": 13.7, "unit": "mm Hg"},
      {"measurement": "MSDBP reduction", "setting": "[2]; [8]", "result": "−11.1", "unit": "mmHg"},
      {"measurement": "MSSBP reduction", "setting": "[2]; [8]", "result": "−13.7", "unit": "mm Hg"},
      {"measurement": "MSDBP reduction", "setting": "[2]; SNP_4795 genotype AA (n 115)", "result": "−9.0", "unit": "mmHg"},
      {"measurement": "MSSBP reduction", "setting": "[2]; SNP_4795 genotype AA (n 115)", "result": "−11.5", "unit": "mm Hg"},
      {"measurement": "MSDBP reduction", "setting": "[2]; SNP_4795 genotype GA (n 72)", "result": "−13.3", "unit": "mmHg"},
      {"measurement": "MSSBP reduction", "setting": "[2]; SNP_4795 genotype GA (n 72)", "result": "−16.3", "unit": "mm Hg"},
      {"measurement": "MSDBP reduction", "setting": "[2]; SNP_4795 genotype GG (n 106)", "result": "−11.1", "unit": "mmHg"},
      {"measurement": "MSSBP reduction", "setting": "[2]; SNP_4795 genotype GG (n 106)", "result": "−13.6", "unit": "mm Hg"},
      {"measurement": "LSMEAN of MSDBP reduction", "setting": "[3]; SNP_1445 genotype AA (n 106)", "result": "−11.0", "unit": "mmHg"},
      {"measurement": "LSMEAN of MSSBP reduction", "setting": "[3]; SNP_1445 genotype AA (n 106)", "result": "−11.2", "unit": "mmHg"},
      {"measurement": "Responder rate", "setting": "[3]; SNP_1445 genotype AA (n 106)", "result": 75, "unit": "%"},
      {"measurement": "LSMEAN of MSDBP reduction", "setting": "[3]; SNP_1445 genotype AG (n 69)", "result": "−13.3", "unit": "mmHg"},
      {"measurement": "LSMEAN of MSSBP reduction", "setting": "[3]; SNP_1445 genotype AG (n 69)", "result": "−13.8", "unit": "mmHg"},
      {"measurement": "Responder rate", "setting": "[3]; SNP_1445 genotype AG (n 69)", "result": 71, "unit": "%"},
      {"measurement": "LSMEAN of MSDBP reduction", "setting": "[3]; SNP_1445 genotype GG (n 118)", "result": "−9.4", "unit": "mmHg"},
      {"measurement": "LSMEAN of MSSBP reduction", "setting": "[3]; SNP_1445 genotype GG (n 118)", "result": "−9.8", "unit": "mmHg"},
      {"measurement": "Responder rate", "setting": "[3]; SNP_1445 genotype GG (n 118)", "result": 58, "unit": "%"},
      {"measurement": "Responder rate", "setting": "[3]; SNP_4769 genotype CT (n 14)", "result": 14, "unit": "%"},
      {"measurement": "LSMEAN of MSDBP reduction", "setting": "[3]; SNP_4795 genotype AA (n 115)", "result": "−9.2", "unit": "mmHg"},
      {"measurement": "LSMEAN of MSSBP reduction", "setting": "[3]; SNP_4795 genotype AA (n 115)", "result": "−9.5", "unit": "mmHg"},
      {"measurement": "Responder rate", "setting": "[3]; SNP_4795 genotype AA (n 115)", "result": 57, "unit": "%"},
      {"measurement": "LSMEAN of MSDBP reduction", "setting": "[3]; SNP_4795 genotype GA (n 72)", "result": "−13.4", "unit": "mmHg"},
      {"measurement": "LSMEAN of MSSBP reduction", "setting": "[3]; SNP_4795 genotype GA (n 72)", "result": "−14.2", "unit": "mmHg"},
      {"measurement": "Responder rate", "setting": "[3]; SNP_4795 genotype GA (n 72)", "result": 74, "unit": "%"},
      {"measurement": "LSMEAN of MSDBP reduction", "setting": "[3]; SNP_4795 genotype GG (n 106)", "result": "−10.8", "unit": "mmHg"},
      {"measurement": "LSMEAN of MSSBP reduction", "setting": "[3]; SNP_4795 genotype GG (n 106)", "result": "−10.8", "unit": "mmHg"},
      {"measurement": "Responder rate", "setting": "[3]; SNP_4795 genotype GG (n 106)", "result": 75, "unit": "%"},
      {"measurement": "change from baseline in MSDBP, aliskiren monotherapy vs. placebo", "setting": "hypertensive patients; aliskiren 300 mg group, 6 weeks", "result": "statistically significant"},
      {"measurement": "dose-response and magnitude of placebo-subtracted effects", "setting": "hypertensive patients; preliminary clinical study results summary, placebo response 8.6 mmHg", "result": "lower than expected"},
      {"measurement": "inhibition of plasma renin activity (PRA)", "setting": "[4]", "result": "complete inhibition"},
      {"measurement": "mean arterial pressure (MAP)", "setting": "[4]", "result": "sustained reductions"},
      {"measurement": "plasma concentrations of active and total renin", "setting": "[4]", "result": "significant increases"},
      {"measurement": "Cmax and AUC dependence on dose", "setting": "[5]", "result": "increase with dose, but in a non-linear fashion"},
      {"measurement": "bioavailability", "setting": "[5]", "result": "approximately 2.7%"},
      {"measurement": "half-life", "setting": "[5]", "result": "approximately 25 hours"},
      {"measurement": "time to peak plasma levels after administration", "setting": "[5]", "result": "3 to 5", "unit": "h"},
      {"measurement": "daytime ambulatory systolic blood pressure (DASBP)", "setting": "[6]", "result": "statistically significant reduction"}
    ]},
    {"molecule": "CCCCC1=NC2(CCCC2)C(=O)N1Cc1ccc(-c2ccccc2-c2nnn[nH]2)cc1", "note": "[irbesartan]", "values": [
      {"measurement": "MSDBP responders", "setting": "[1]", "result": 56, "unit": "%"},
      {"measurement": "MSSBP responders", "setting": "[1]", "result": 59, "unit": "%"},
      {"measurement": "mean increase in active renin", "setting": "[1]; 150 mg", "result": 11.2, "unit": "mu/mL"}
    ]}
  ]
}
